Measurements taken from the supplement of paper PMC10307832.

Experiments:
Experiment in all cases: relative viability (nuclei count vs DMSO), 5 days (fraction); higher = more cells survive
[1] = compound: CCN1C(=O)C2=CC(=C(N=C2N(C1=O)C3CC3)N)C(=O)N
Procedure, shortened: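 Hoechst staining, done together with fixation and permeabilisation, marked nuclei for 4× imaging and MetaXpress counting. This followed 5 days without medium change after lung cancer cell lines, kept overnight at 37 °C in 1536-well plates, were pinned with five library-drug doses (not always all listed) spaced by √10 on vehicle-anchored plates. Viability is the ratio of treated-well to vehicle-well nuclei, expressed as a median across plates. Plates passed only at control CV below 25% with at least one doubling.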

[2] = compound: CCN1C(=O)C2=CC(=C(N=C2N(C1=O)C3CC3)N)C(=O)N + Nc1ncn([C@H]2C[C@H](O)[C@@H](CO)O2)c(=O)n1 [Decitabine] (partner 2 µM)
Procedure, shortened: (§1)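 After 5 days of treatment, lung cancer cells in 1536-well plates were fixed and stained in a single step (final 0.05% Triton X-100, 1% formaldehyde, 1 ug/ml Hoechst) and their nuclei counted on 4× images. Treatment had been applied by pin tool the day after seeding as one drug alone or as a fixed anchor-drug dose with five library-drug doses (not always all listed) in √10 steps. Relative viability is the nuclei count of treated wells divided by that of vehicle wells, and values are medians of duplicate plates.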

[3] = compound: CCN1C(=O)C2=CC(=C(N=C2N(C1=O)C3CC3)N)C(=O)N + Nc1nc2[nH]cc(CCc3ccc(C(=O)N[C@@H](CCC(=O)O)C(=O)O)cc3)c2c(=O)[nH]1 [Pemetrexed] (partner 0.2 µM)
Procedure, shortened: as §1

[4] = compound: CCN1C(=O)C2=CC(=C(N=C2N(C1=O)C3CC3)N)C(=O)N + CC(=O)Nc1cccc(-n2c(=O)n(C3CC3)c(=O)c3c(Nc4ccc(I)cc4F)n(C)c(=O)c(C)c32)c1 [Trametinib] (partner 0.02 µM)
Procedure, shortened: as §1

[5] = compound: CCN1C(=O)C2=CC(=C(N=C2N(C1=O)C3CC3)N)C(=O)N + Cc1cc(Nc2cc(N3CCN(C)CC3)nc(Sc3ccc(NC(=O)C4CC4)cc3)n2)n[nH]1 [Tozasertib] (partner 0.1 µM)
Procedure, shortened: as §1

[6] = compound: CCN1C(=O)C2=CC(=C(N=C2N(C1=O)C3CC3)N)C(=O)N + O=C(CCCCCCC(=O)Nc1ccccc1)NO [Vorinostat] (partner 1 µM)
Procedure, shortened: as §1

[7] = compound: CCN1C(=O)C2=CC(=C(N=C2N(C1=O)C3CC3)N)C(=O)N + NC(=O)Nc1cc(-c2cccc(F)c2)sc1C(=O)N[C@H]1CCCNC1 [AZD7762] (partner 0.2 µM)
Procedure, shortened: as §1

[8] = compound: CCN1C(=O)C2=CC(=C(N=C2N(C1=O)C3CC3)N)C(=O)N + CC(=O)c1c(C)c2cnc(Nc3ccc(N4CCNCC4)cn3)nc2n(C2CCCC2)c1=O [Palbociclib] (partner 0.5 µM)
Procedure, shortened: as §1

[9] = compound: CCN1C(=O)C2=CC(=C(N=C2N(C1=O)C3CC3)N)C(=O)N + COc1cccc2cc(-c3nc([C@H]4CC[C@H](C(=O)O)CC4)n4ncnc(N)c34)[nH]c12 [OSI-027] (partner 0.5 µM)
Procedure, shortened: as §1

[10] = compound: CCN1C(=O)C2=CC(=C(N=C2N(C1=O)C3CC3)N)C(=O)N + O=C(c1cc(Cc2n[nH]c(=O)c3ccccc23)ccc1F)N1CCN(C(=O)C2CC2)CC1 [Olaparib] (partner 8 µM)
Procedure, shortened: as §1

[11] = compound: CCN1C(=O)C2=CC(=C(N=C2N(C1=O)C3CC3)N)C(=O)N + Cc1nc(Nc2ncc(C(=O)Nc3c(C)cccc3Cl)s2)cc(N2CCN(CCO)CC2)n1 [Dasatinib] (partner 0.075 µM)
Procedure, shortened: as §1

[12] = compound: CCN1C(=O)C2=CC(=C(N=C2N(C1=O)C3CC3)N)C(=O)N + COc1cc2c(Oc3ccc(NC(=O)C4(C(=O)Nc5ccc(F)cc5)CC4)cc3F)ccnc2cc1OCCCN1CCOCC1 [Foretinib] (partner 0.25 µM)
Procedure, shortened: as §1

[13] = compound: CCN1C(=O)C2=CC(=C(N=C2N(C1=O)C3CC3)N)C(=O)N + N=C(N)NC(=N)NCCc1ccccc1 [Phenformin] (partner 250 µM)
Procedure, shortened: as §1

[14] = compound: CCN1C(=O)C2=CC(=C(N=C2N(C1=O)C3CC3)N)C(=O)N + CCNC(=O)c1noc(-c2cc(C(C)C)c(O)cc2O)c1-c1ccc(CN2CCOCC2)cc1 [Luminespib] (partner 0.01 µM)
Procedure, shortened: as §1

Cell Line: NCI-H1648
- relative viability ([1]; 0.253 µM): 0.835
- relative viability ([1]; 0.8 µM): 0.932
- relative viability ([1]; 2.53 µM): 0.89
- relative viability ([1]; 8 µM): 0.851
- relative viability ([2]; first compound 0.253 µM): 0.394
- relative viability ([2]; first compound 2.53 µM): 0.429
- relative viability ([2]; first compound 8 µM): 0.445
- relative viability ([3]; first compound 0.253 µM): 0.735
- relative viability ([3]; first compound 2.53 µM): 0.64
- relative viability ([3]; first compound 8 µM): 0.585
- relative viability ([4]; first compound 0.253 µM): 0.45
- relative viability ([4]; first compound 2.53 µM): 0.245
- relative viability ([4]; first compound 8 µM): 0.386
- relative viability ([5]; first compound 0.253 µM): 0.416
- relative viability ([5]; first compound 0.8 µM): 0.526
- relative viability ([5]; first compound 2.53 µM): 0.423
- relative viability ([5]; first compound 8 µM): 0.53
- relative viability ([6]; first compound 0.253 µM): 0.488
- relative viability ([6]; first compound 2.53 µM): 0.219
- relative viability ([6]; first compound 8 µM): 0.9
- relative viability ([7]; first compound 0.253 µM): 0.706
- relative viability ([7]; first compound 2.53 µM): 0.646
- relative viability ([7]; first compound 8 µM): 0.568
- relative viability ([8]; first compound 0.253 µM): 0.301
- relative viability ([8]; first compound 2.53 µM): 0.243
- relative viability ([8]; first compound 8 µM): 0.273
- relative viability ([9]; first compound 0.253 µM): 0.265
- relative viability ([9]; first compound 0.8 µM): 0.271
- relative viability ([9]; first compound 2.53 µM): 0.259
- relative viability ([9]; first compound 8 µM): 0.278
- relative viability ([10]; first compound 0.253 µM): 0.914
- relative viability ([10]; first compound 2.53 µM): 1.07
- relative viability ([10]; first compound 8 µM): 0.883

Cell Line: SW 900
- relative viability ([1]; 0.253 µM): 0.672
- relative viability ([1]; 0.8 µM): 0.717
- relative viability ([1]; 2.53 µM): 0.785
- relative viability ([1]; 8 µM): 0.786
- relative viability ([2]; first compound 0.253 µM): 0.347
- relative viability ([2]; first compound 0.8 µM): 0.511
- relative viability ([2]; first compound 2.53 µM): 0.49
- relative viability ([2]; first compound 8 µM): 0.443
- relative viability ([3]; first compound 0.253 µM): 0.462
- relative viability ([3]; first compound 0.8 µM): 0.517
- relative viability ([3]; first compound 2.53 µM): 0.52
- relative viability ([3]; first compound 8 µM): 0.473
- relative viability ([4]; first compound 0.253 µM): 0.81
- relative viability ([4]; first compound 0.8 µM): 0.864
- relative viability ([4]; first compound 2.53 µM): 0.75
- relative viability ([4]; first compound 8 µM): 0.641
- relative viability ([11]; first compound 0.253 µM): 0.447
- relative viability ([11]; first compound 0.8 µM): 0.599
- relative viability ([11]; first compound 2.53 µM): 0.68
- relative viability ([11]; first compound 8 µM): 0.511
- relative viability ([5]; first compound 0.253 µM): 0.553
- relative viability ([5]; first compound 0.8 µM): 0.507
- relative viability ([5]; first compound 2.53 µM): 0.457
- relative viability ([5]; first compound 8 µM): 0.446
- relative viability ([6]; first compound 0.253 µM): 0.434
- relative viability ([6]; first compound 0.8 µM): 0.582
- relative viability ([6]; first compound 2.53 µM): 0.524
- relative viability ([6]; first compound 8 µM): 0.538
- relative viability ([12]; first compound 0.253 µM): 1.03
- relative viability ([12]; first compound 0.8 µM): 0.996
- relative viability ([12]; first compound 2.53 µM): 0.837
- relative viability ([12]; first compound 8 µM): 1.03
- relative viability ([7]; first compound 0.253 µM): 0.601
- relative viability ([7]; first compound 0.8 µM): 0.643
- relative viability ([7]; first compound 2.53 µM): 0.635
- relative viability ([7]; first compound 8 µM): 0.633
- relative viability ([8]; first compound 0.253 µM): 0.551
- relative viability ([8]; first compound 0.8 µM): 0.558
- relative viability ([8]; first compound 2.53 µM): 0.521
- relative viability ([8]; first compound 8 µM): 0.669
- relative viability ([9]; first compound 0.253 µM): 0.568
- relative viability ([9]; first compound 0.8 µM): 0.531
- relative viability ([9]; first compound 2.53 µM): 0.475
- relative viability ([9]; first compound 8 µM): 0.731
- relative viability ([13]; first compound 0.253 µM): 0.498
- relative viability ([13]; first compound 0.8 µM): 0.625
- relative viability ([13]; first compound 2.53 µM): 0.493
- relative viability ([13]; first compound 8 µM): 0.563
- relative viability ([10]; first compound 0.253 µM): 0.84
- relative viability ([10]; first compound 0.8 µM): 1.1
- relative viability ([10]; first compound 2.53 µM): 0.955
- relative viability ([10]; first compound 8 µM): 0.928
- relative viability ([14]; first compound 0.253 µM): 0.217
- relative viability ([14]; first compound 0.8 µM): 0.193
- relative viability ([14]; first compound 2.53 µM): 0.174
- relative viability ([14]; first compound 8 µM): 0.166
